Measurements from PubChem BioAssay AID1963438 (Molecular Pharmacology Branch, DTP, NCI, 2024).

Test system: NCI-H510 multicellular tumor spheroid growth, % test/control
Test: Anticancer human tumor NCI-H510 cell line growth inhibition [Asc];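 further: spheroids exposed to agents for 7 days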;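 on viability, T/C: 100% = DMSO vehicle control wells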
Settings: for IC50: curve of first compound; for viability, T/C: stronger effect = lower value; active means viability on the fitted dose curve at most 10% of control; inactive means the rest
How it was run: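 Concentration series start at each agent's clinical Cmax, or at 10 microM when none is established, and drop in half-log steps; agents are applied alone or together to complex spheroids built with HUVEC and hMSC.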

[1] = second compound 0.1 µM, first compound 0.0316 µM
[2] = second compound 0.1 µM, first compound 0.1 µM
[3] = second compound 0.1 µM, first compound 0.316 µM
[4] = second compound 0.1 µM, first compound 1 µM
[5] = second compound 0.316 µM, first compound 0.0316 µM
[6] = second compound 0.316 µM, first compound 0.1 µM
[7] = second compound 0.316 µM, first compound 0.316 µM
[8] = second compound 0.316 µM, first compound 1 µM
[9] = second compound 1 µM, first compound 0.0316 µM
[10] = second compound 1 µM, first compound 0.1 µM
[11] = second compound 1 µM, first compound 0.316 µM
[12] = second compound 1 µM, first compound 1 µM
[13] = second compound 3.16 µM, first compound 0.0316 µM
[14] = second compound 3.16 µM, first compound 0.1 µM
[15] = second compound 3.16 µM, first compound 0.316 µM
[16] = second compound 3.16 µM, first compound 1 µM
[17] = second compound 10 µM, first compound 0.0316 µM
[18] = second compound 10 µM, first compound 0.1 µM
[19] = second compound 10 µM, first compound 0.316 µM
[20] = second compound 10 µM, first compound 1 µM
[21] = second compound 0.1 µM, first compound 0.00316 µM
[22] = second compound 0.1 µM, first compound 0.01 µM
[23] = second compound 0.316 µM, first compound 0.00316 µM
[24] = second compound 0.316 µM, first compound 0.01 µM
[25] = second compound 1 µM, first compound 0.00316 µM
[26] = second compound 1 µM, first compound 0.01 µM
[27] = second compound 3.16 µM, first compound 0.00316 µM
[28] = second compound 3.16 µM, first compound 0.01 µM
[29] = second compound 10 µM, first compound 0.00316 µM
[30] = second compound 10 µM, first compound 0.01 µM

C=CC(=O)N1CCN(c2nc(=O)n(-c3c(C)ccnc3C(C)C)c3nc(-c4c(O)cccc4F)c(F)cc23)C(C)C1 (stereo not given) + Cc1c(S(C)(=O)=O)c(-c2cc(F)cc(N3CCN(c4ccc(NS(=O)(=O)c5ccc(NC(CCN6CCC(C(=O)OCCCP(=O)(O)O)CC6)CSc6ccccc6)c(S(=O)(=O)C(F)(F)F)c5)cc4)CC3)c2)c(-c2ccc(Cl)cc2)n1C(C)C
inactive: viability, T/C [1] 102% | viability, T/C [2] 110% | viability, T/C [3] 124% | viability, T/C [4] 94.7% | viability, T/C (second compound 0.1 µM, first compound 3.16 µM) 86.3% | viability, T/C (second compound 0.1 µM, first compound 10 µM) 98.4% | viability, T/C [5] 106% | viability, T/C [6] 103% | viability, T/C [7] 115% | viability, T/C [8] 103% | viability, T/C (second compound 0.316 µM, first compound 3.16 µM) 109% | viability, T/C (second compound 0.316 µM, first compound 10 µM) 86% | viability, T/C [9] 85.6% | viability, T/C [10] 89.5% | viability, T/C [11] 115% | viability, T/C [12] 121% | viability, T/C (second compound 1 µM, first compound 3.16 µM) 98.1% | viability, T/C (second compound 1 µM, first compound 10 µM) 79.3% | viability, T/C [13] 80% | viability, T/C [14] 100% | viability, T/C [15] 117% | viability, T/C [16] 118% | viability, T/C (second compound 3.16 µM, first compound 3.16 µM) 79.7% | viability, T/C (second compound 3.16 µM, first compound 10 µM) 108% | viability, T/C [17] 102% | viability, T/C [18] 106% | viability, T/C [19] 97.8% | viability, T/C [20] 100% | viability, T/C (second compound 10 µM, first compound 3.16 µM) 89.4% | viability, T/C (second compound 10 µM, first compound 10 µM) 81.9%
> 10000 nM: IC50 (second compound 0.1 µM) | IC50 (second compound 0.316 µM) | IC50 (second compound 1 µM) | IC50 (second compound 3.16 µM) | IC50 (second compound 10 µM)

COc1c(OCCCN2CCOCC2)ccc2c3n(c(=NC(=O)c4cnc(N)nc4)nc12)CCN3 + Cc1c(S(C)(=O)=O)c(-c2cc(F)cc(N3CCN(c4ccc(NS(=O)(=O)c5ccc(NC(CCN6CCC(C(=O)OCCCP(=O)(O)O)CC6)CSc6ccccc6)c(S(=O)(=O)C(F)(F)F)c5)cc4)CC3)c2)c(-c2ccc(Cl)cc2)n1C(C)C
231 nM: IC50 (second compound 10 µM)
> 1000 nM: IC50 (second compound 0.1 µM) | IC50 (second compound 0.316 µM) | IC50 (second compound 1 µM) | IC50 (second compound 3.16 µM)
inactive: viability, T/C [21] 112% | viability, T/C [22] 106% | viability, T/C [1] 88.9% | viability, T/C [2] 89.3% | viability, T/C [3] 96.4% | viability, T/C [4] 84.3% | viability, T/C [23] 102% | viability, T/C [24] 99.6% | viability, T/C [5] 70.3% | viability, T/C [6] 75% | viability, T/C [7] 89.1% | viability, T/C [8] 53.6% | viability, T/C [25] 99.8% | viability, T/C [26] 98.1% | viability, T/C [9] 106% | viability, T/C [10] 91.2% | viability, T/C [11] 67.5% | viability, T/C [12] 86.1% | viability, T/C [27] 89.4% | viability, T/C [28] 91.6% | viability, T/C [13] 82.6% | viability, T/C [14] 80% | viability, T/C [15] 82.6% | viability, T/C [16] 63.8% | viability, T/C [29] 66% | viability, T/C [30] 98.4% | viability, T/C [17] 70.9% | viability, T/C [18] 96.3% | viability, T/C [19] 37.6% | viability, T/C [20] 32.2%

NC(=O)C(=Cn1cnc(-c2cc(C(F)(F)F)cc(C(F)(F)F)c2)n1)c1cncnc1 + Cc1c(S(C)(=O)=O)c(-c2cc(F)cc(N3CCN(c4ccc(NS(=O)(=O)c5ccc(NC(CCN6CCC(C(=O)OCCCP(=O)(O)O)CC6)CSc6ccccc6)c(S(=O)(=O)C(F)(F)F)c5)cc4)CC3)c2)c(-c2ccc(Cl)cc2)n1C(C)C
inactive: viability, T/C (second compound 0.1 µM, first compound 0.000949 µM) 87% | viability, T/C (second compound 0.1 µM, first compound 0.003 µM) 76.6% | viability, T/C (second compound 0.1 µM, first compound 0.00949 µM) 109% | viability, T/C (second compound 0.1 µM, first compound 0.03 µM) 74.3% | viability, T/C (second compound 0.1 µM, first compound 0.0949 µM) 86.7% | viability, T/C (second compound 0.1 µM, first compound 0.3 µM) 29.6% | viability, T/C (second compound 0.316 µM, first compound 0.000949 µM) 102% | viability, T/C (second compound 0.316 µM, first compound 0.003 µM) 73.5% | viability, T/C (second compound 0.316 µM, first compound 0.00949 µM) 103% | viability, T/C (second compound 0.316 µM, first compound 0.03 µM) 78.2% | viability, T/C (second compound 0.316 µM, first compound 0.0949 µM) 66.8% | viability, T/C (second compound 1 µM, first compound 0.000949 µM) 88.5% | viability, T/C (second compound 1 µM, first compound 0.003 µM) 76.9% | viability, T/C (second compound 1 µM, first compound 0.00949 µM) 88.9% | viability, T/C (second compound 1 µM, first compound 0.03 µM) 74% | viability, T/C (second compound 1 µM, first compound 0.0949 µM) 43% | viability, T/C (second compound 3.16 µM, first compound 0.000949 µM) 79.2% | viability, T/C (second compound 3.16 µM, first compound 0.003 µM) 88.6% | viability, T/C (second compound 3.16 µM, first compound 0.00949 µM) 94.8% | viability, T/C (second compound 3.16 µM, first compound 0.03 µM) 59.2% | viability, T/C (second compound 3.16 µM, first compound 0.0949 µM) 89% | viability, T/C (second compound 3.16 µM, first compound 0.3 µM) 18.3% | viability, T/C (second compound 10 µM, first compound 0.000949 µM) 76.1% | viability, T/C (second compound 10 µM, first compound 0.003 µM) 84.5% | viability, T/C (second compound 10 µM, first compound 0.00949 µM) 59.3% | viability, T/C (second compound 10 µM, first compound 0.03 µM) 70% | viability, T/C (second compound 10 µM, first compound 0.0949 µM) 35%
73.4 nM: IC50 (second compound 1 µM)
53.4 nM: IC50 (second compound 10 µM)
active: viability, T/C (second compound 0.316 µM, first compound 0.3 µM) 4.66% | viability, T/C (second compound 1 µM, first compound 0.3 µM) 6.15% | viability, T/C (second compound 10 µM, first compound 0.3 µM) 1.98%
199 nM: IC50 (second compound 0.1 µM)
169 nM: IC50 (second compound 3.16 µM)
126 nM: IC50 (second compound 0.316 µM)

NC1CCC(NC2CC2c2ccccc2)CC1 (stereo not given) + Cc1c(S(C)(=O)=O)c(-c2cc(F)cc(N3CCN(c4ccc(NS(=O)(=O)c5ccc(NC(CCN6CCC(C(=O)OCCCP(=O)(O)O)CC6)CSc6ccccc6)c(S(=O)(=O)C(F)(F)F)c5)cc4)CC3)c2)c(-c2ccc(Cl)cc2)n1C(C)C
> 100 nM: IC50 (second compound 0.1 µM) | IC50 (second compound 0.316 µM) | IC50 (second compound 1 µM) | IC50 (second compound 3.16 µM) | IC50 (second compound 10 µM)
inactive: viability, T/C (second compound 0.1 µM, first compound 0.000316 µM) 88.8% | viability, T/C (second compound 0.1 µM, first compound 0.001 µM) 85% | viability, T/C [21] 74.1% | viability, T/C [22] 87.7% | viability, T/C [1] 67.5% | viability, T/C [2] 90.4% | viability, T/C (second compound 0.316 µM, first compound 0.000316 µM) 86.1% | viability, T/C (second compound 0.316 µM, first compound 0.001 µM) 85.8% | viability, T/C [23] 76.9% | viability, T/C [24] 66.5% | viability, T/C [5] 78.4% | viability, T/C [6] 97.9% | viability, T/C (second compound 1 µM, first compound 0.000316 µM) 116% | viability, T/C (second compound 1 µM, first compound 0.001 µM) 77.8% | viability, T/C [25] 63.8% | viability, T/C [26] 67.1% | viability, T/C [9] 64% | viability, T/C [10] 59.6% | viability, T/C (second compound 3.16 µM, first compound 0.000316 µM) 81% | viability, T/C (second compound 3.16 µM, first compound 0.001 µM) 80.2% | viability, T/C [27] 74.8% | viability, T/C [28] 67.1% | viability, T/C [13] 80.6% | viability, T/C [14] 69.9% | viability, T/C (second compound 10 µM, first compound 0.000316 µM) 66.8% | viability, T/C (second compound 10 µM, first compound 0.001 µM) 63.1% | viability, T/C [29] 63.6% | viability, T/C [30] 91% | viability, T/C [17] 102% | viability, T/C [18] 36.1%
